The text below walks through data of patent US10039756B2, “Reducing memory loss in mammals suffering from alzheimer's disease” (The Penn State Research Foundation, priority 2013, dated 2018).

The test system of one assay is LTP in DG. Kind of assay: Long-term potentiation (LTP) in dentate gyrus, hippocampal slice field EPSP recordings. In kind it is cell-based, mouse. The conditions noted are these: 100 nM; 5xFAD dentate granule cells. As to the method:
(§1) Mice were anesthetized with 2.5% Avertin. After decapitation, brains were rapidly dissected out and placed in ice-cold cutting solution containing: 79 mM NaCl, 80 mM sucrose, 26 mM NaHCO3, 10 mM glucose, 2.5 mM KCl, 1.25 mM NaH2PO4, 7 mM MgSO4, and 0.5 mM CaCl2 for tonic current recordings. The cutting solution for field EPSP recordings contained: 230 mM sucrose, 26 mM NaHCO3, 20 mM glucose, 2.5 mM KCl, 1.25 mM NaH2PO4, 10 mM MgSO4, and 0.5 mM CaCl2. Both solutions were bubbled with 95% O2/5% CO2. […]
(§2) Whole-cell voltage clamp recordings were performed on dentate gyrus granule cells using a pipette solution containing: 135 mM CsCl, 5 mM Na-phosphocreatine, 10 mM HEPES, 5 mM EGTA, 4 mM MgATP, 5 mM QX-314, and 0.5 mM Na2GTP (pH 7.3 adjusted with CsOH, 280-290 mOsm/L). […] Data was acquired using pClamp 9 software (Molecular Devices; sampled at 10 kHz and filtered at 1 kHz), and analyzed with Clampfit 9.0 software (Molecular Devices). Field excitatory postsynaptic potentials (fEPSPs) were recorded with glass electrodes filled with 1 M NaCl and 25 mM HEPES (pH 7.3), and were evoked every 20 seconds with a parallel bipolar tungsten electrode (MicroProbes, USA), which was placed at medial perforant path in the dentate gyrus. […]

For a further assay, the system named is 5xFAD mice. Briefly: Y-maze spontaneous alternation task. In kind it is in vivo, mouse. The conditions noted are these: 1 mg kg-1, i.p., once per day for one week, p<0.05. How it is done: L-655,708 was dissolved at 1 mg/mL in DMSO, and frozen in storage aliquots. The working solution was diluted 10 times in normal saline solution. […] The last injection was administrated 30 minutes before behavioral test.
Spontaneous alternation performance was tested as described elsewhere (Oakley et al., J. Neurosci., 26(40):10129-10140 (2006)). […] It allows the assessment of hippocampus-dependent spatial working memory. Each mouse was placed in the center of a symmetrical Y-maze and was allowed to explore freely through the maze during an 8 minute session. The first two minutes were not included for data analysis because mice were exploring new environment. The total number and the sequence of arm entries in the last 6 minutes were recorded and analyzed. Arm entry was defined as the hind paws of the mice had been completely placed in the arm. Analysis was done blind. The percentage of alternation is the number of triads containing entries into all three arms divided by the maximum possible alternations (the total number of arms entered minus 2)×100.
A behavioral analysis was conducted to test the effect of enhanced tonic inhibition on the cognitive function of 5xFAD animals. […] Therefore, it was concluded that the abnormal tonic inhibition in DG is an important contributing factor toward the learning and memory deficit in AD.

The target in the next assay is T1, α5-GABAA-Rs (Mus musculus, UniProt P22723+Q8BHJ7).
T1 construct: from tissue; host or cells: mouse hippocampal slices; dentate granule cells and CA1 pyramidal neurons
T1 sequence (P63080 26-473): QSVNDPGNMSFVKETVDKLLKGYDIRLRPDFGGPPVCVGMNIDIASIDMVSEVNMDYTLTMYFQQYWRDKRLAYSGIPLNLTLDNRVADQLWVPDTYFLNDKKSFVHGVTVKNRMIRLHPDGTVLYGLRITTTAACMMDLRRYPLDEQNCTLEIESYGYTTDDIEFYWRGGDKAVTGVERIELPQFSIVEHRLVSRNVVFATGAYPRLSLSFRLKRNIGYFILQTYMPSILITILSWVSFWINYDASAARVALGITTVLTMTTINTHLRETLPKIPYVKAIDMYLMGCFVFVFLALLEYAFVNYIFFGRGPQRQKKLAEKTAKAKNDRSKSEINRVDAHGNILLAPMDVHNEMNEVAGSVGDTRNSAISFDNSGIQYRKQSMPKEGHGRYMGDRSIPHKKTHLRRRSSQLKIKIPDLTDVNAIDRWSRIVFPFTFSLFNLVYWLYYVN
T1 sequence (Q8BHJ7 32-463): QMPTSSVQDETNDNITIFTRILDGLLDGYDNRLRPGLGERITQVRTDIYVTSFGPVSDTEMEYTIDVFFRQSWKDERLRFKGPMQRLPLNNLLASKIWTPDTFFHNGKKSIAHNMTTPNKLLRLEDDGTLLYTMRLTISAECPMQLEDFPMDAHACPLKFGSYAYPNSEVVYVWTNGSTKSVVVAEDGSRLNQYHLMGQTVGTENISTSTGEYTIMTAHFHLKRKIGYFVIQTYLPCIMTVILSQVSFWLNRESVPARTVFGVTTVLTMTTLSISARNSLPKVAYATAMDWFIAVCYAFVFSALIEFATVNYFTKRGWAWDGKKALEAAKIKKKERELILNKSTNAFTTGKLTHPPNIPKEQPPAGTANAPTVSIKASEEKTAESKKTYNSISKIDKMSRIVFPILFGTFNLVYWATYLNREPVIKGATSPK
T1 sequence (P22723 39-474): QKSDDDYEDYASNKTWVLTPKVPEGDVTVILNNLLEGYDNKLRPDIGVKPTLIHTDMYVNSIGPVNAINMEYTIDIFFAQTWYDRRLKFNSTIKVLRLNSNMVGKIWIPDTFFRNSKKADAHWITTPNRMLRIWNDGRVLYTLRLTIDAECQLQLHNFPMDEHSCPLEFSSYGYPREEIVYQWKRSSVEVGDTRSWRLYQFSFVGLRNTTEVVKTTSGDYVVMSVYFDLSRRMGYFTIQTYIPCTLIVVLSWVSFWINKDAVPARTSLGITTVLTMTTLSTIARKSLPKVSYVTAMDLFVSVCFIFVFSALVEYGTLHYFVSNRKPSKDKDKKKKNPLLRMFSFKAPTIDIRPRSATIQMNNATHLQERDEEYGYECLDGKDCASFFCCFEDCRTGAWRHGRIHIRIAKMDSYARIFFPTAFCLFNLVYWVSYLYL
Briefly: Tonic current mediated by α5-GABAA-Rs, whole-cell patch clamp in hippocampal slices. It counts as cell-based. As to the method: Mice were anesthetized with 2.5% Avertin. After decapitation, brains were rapidly dissected out and placed in ice-cold cutting solution containing: 79 mM NaCl, 80 mM sucrose, 26 mM NaHCO3, 10 mM glucose, 2.5 mM KCl, 1.25 mM NaH2PO4, 7 mM MgSO4, and 0.5 mM CaCl2 for tonic current recordings. The cutting solution for field EPSP recordings contained: 230 mM sucrose, 26 mM NaHCO3, 20 mM glucose, 2.5 mM KCl, 1.25 mM NaH2PO4, 10 mM MgSO4, and 0.5 mM CaCl2. Both solutions were bubbled with 95% O2/5% CO2. Hippocampal slices were cut at 350 μm with a vibratome (VT1200S, Leica, Germany) and transferred to a transitional chamber containing one half of cutting solution and one half of standard artificial cerebrospinal fluid (ACSF). The ACSF was composed of: 125.0 mM NaCl, 2.5 mM KCl, 1.3 mM MgSO4, 26.0 mM NaHCO3, 1.25 mM NaH2PO4, 2.0 mM CaCl2, and mM 10 glucose (290-300 mOsmol; gassed with 95% O2/5% CO2, pH ˜7.4). Slices were then incubated in ACSF at 32° C. for 30 minutes to recover. Subsequently, slices were maintained at room temperature for another 30 minutes before recording. Individual slices were then transferred to a submerged recording chamber where they were continuously perfused (2-3 mL/minute) with ACSF saturated by 95% O2/5% CO2 at 32° C.
Whole-cell voltage clamp recordings were performed on dentate gyrus granule cells using a pipette solution containing: 135 mM CsCl, 5 mM Na-phosphocreatine, 10 mM HEPES, 5 mM EGTA, 4 mM MgATP, 5 mM QX-314, and 0.5 mM Na2GTP (pH 7.3 adjusted with CsOH, 280-290 mOsm/L). Pipette resistance was 2-5 MΩ, and series resistance was typically 20-40 MΩ. To record tonic GABA current, 10 μM CNQX and 50 μM DL-APV were added into the ACSF to block glutamate receptors. In some experiments, 5 μM GABA also was added into the ACSF to reveal larger tonic GABA current and increase the signal-to-noise ratio. […] The membrane potential was held at −70 mV. Data was acquired using pClamp 9 software (Molecular Devices; sampled at 10 kHz and filtered at 1 kHz), and analyzed with Clampfit 9.0 software (Molecular Devices). Field excitatory postsynaptic potentials (fEPSPs) were recorded with glass electrodes filled with 1 M NaCl and 25 mM HEPES (pH 7.3), and were evoked every 20 seconds with a parallel bipolar tungsten electrode (MicroProbes, USA), which was placed at medial perforant path in the dentate gyrus. Three evoked responses were averaged to obtain a data point. […]
The following was performed to investigate which subtype of GABAA-Rs mediate the enhanced tonic GABA current in AD dentate granule cells. […] Quantitatively, the tonic current blocked by L-655,708 in AD dentate granule cells was more than doubled that in WT animals (FIG. 5, panel e; WT, 35.4±6.3 pA, n=12; AD, 98.7±12.9 pA, n=9; p<0.001). […]
(In general: In patch-clamp work, channel activity is measured electrically.)

The target of another assay is T2, human GAT-2 polypeptide (Homo sapiens, UniProt Q9NSD5).
T2 sequence (Q9NSD5 1-602): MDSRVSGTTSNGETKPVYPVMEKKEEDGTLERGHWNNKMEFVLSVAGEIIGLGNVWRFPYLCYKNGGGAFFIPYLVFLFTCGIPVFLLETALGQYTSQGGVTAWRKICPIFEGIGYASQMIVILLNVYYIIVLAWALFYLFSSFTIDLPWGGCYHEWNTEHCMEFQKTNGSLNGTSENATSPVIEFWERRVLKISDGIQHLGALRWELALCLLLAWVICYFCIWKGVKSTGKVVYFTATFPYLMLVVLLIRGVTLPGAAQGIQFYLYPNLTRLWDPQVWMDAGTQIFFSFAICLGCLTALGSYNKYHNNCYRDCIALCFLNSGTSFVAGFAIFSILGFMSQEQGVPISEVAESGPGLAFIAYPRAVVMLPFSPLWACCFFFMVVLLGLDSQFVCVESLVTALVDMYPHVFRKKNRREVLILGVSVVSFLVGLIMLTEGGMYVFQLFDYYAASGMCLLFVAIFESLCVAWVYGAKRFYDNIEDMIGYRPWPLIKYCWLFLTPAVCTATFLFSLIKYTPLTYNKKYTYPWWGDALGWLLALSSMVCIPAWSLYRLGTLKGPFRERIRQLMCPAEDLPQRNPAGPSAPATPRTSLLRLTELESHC
The conditions noted are these: cited from earlier work.

Another assay has as its target human GAT-1 polypeptide (Homo sapiens, UniProt P30531). The settings on record: cited from earlier work.
In the next assay the target is T3, human GAT-3 polypeptide (Homo sapiens, UniProt P48066).
T3 sequence (P48066 1-632): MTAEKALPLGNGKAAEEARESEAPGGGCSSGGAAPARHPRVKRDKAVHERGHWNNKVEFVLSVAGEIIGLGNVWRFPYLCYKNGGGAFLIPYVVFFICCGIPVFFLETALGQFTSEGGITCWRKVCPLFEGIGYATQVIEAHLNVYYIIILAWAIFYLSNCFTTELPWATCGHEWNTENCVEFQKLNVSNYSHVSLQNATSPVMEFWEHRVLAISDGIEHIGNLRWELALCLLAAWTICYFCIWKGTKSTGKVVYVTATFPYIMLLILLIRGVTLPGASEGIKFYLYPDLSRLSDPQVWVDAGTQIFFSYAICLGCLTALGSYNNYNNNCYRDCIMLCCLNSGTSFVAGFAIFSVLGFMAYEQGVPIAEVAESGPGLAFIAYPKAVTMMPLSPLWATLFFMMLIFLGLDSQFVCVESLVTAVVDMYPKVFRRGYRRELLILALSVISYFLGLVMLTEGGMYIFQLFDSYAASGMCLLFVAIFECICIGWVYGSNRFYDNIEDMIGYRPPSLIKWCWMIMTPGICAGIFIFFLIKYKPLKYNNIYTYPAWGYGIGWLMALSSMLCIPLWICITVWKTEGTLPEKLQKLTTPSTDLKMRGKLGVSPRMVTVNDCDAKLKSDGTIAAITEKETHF
The settings on record: cited from earlier work.

Assay [1] addresses T4, neuronal GABA transporters (Mus musculus, UniProt P31648).
T4 construct: from tissue; host or cells: mouse hippocampal slices, dentate granule cells
Kind of assay: Tonic current induced by blockade of neuronal GABA transporters in dentate granule cells. It counts as cell-based. The settings on record: P>0.4. How it is done: FIG. 7, panel a, contains typical traces showing tonic current induced by blockade of neuronal GABA transporters with NO-711 (1-[2-[[(Diphenylmethylene)imino]oxy]ethyl]-1,2,5,6-tetrahydro-3-pyridinecarboxylic acid hydrochloride hydrochloride). Large mIPSCs were truncated to better illustrate the tonic current.
Mice were anesthetized with 2.5% Avertin. After decapitation, brains were rapidly dissected out and placed in ice-cold cutting solution containing: 79 mM NaCl, 80 mM sucrose, 26 mM NaHCO3, 10 mM glucose, 2.5 mM KCl, 1.25 mM NaH2PO4, 7 mM MgSO4, and 0.5 mM CaCl2 for tonic current recordings. […]
as §2

The next assay deals with T5, δ-GABAA-Rs (Mus musculus, UniProt P22933+P63137+Q9D6F4).
T5 construct: from tissue; host or cells: mouse hippocampal slices, dentate granule cells
T5 sequence (P22933 17-449 limits assumed): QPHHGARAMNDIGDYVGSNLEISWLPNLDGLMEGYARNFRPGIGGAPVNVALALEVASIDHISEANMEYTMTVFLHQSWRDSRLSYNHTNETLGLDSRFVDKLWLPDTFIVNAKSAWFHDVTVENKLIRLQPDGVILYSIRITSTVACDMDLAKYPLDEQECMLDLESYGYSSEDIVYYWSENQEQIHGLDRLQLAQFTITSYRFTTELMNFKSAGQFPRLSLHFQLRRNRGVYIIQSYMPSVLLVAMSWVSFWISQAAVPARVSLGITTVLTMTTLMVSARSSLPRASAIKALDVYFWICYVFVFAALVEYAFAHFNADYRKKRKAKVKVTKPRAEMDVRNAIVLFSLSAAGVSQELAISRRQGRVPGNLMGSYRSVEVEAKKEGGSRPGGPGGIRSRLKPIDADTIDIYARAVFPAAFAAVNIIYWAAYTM
T5 sequence (Q9D6F4 36-552): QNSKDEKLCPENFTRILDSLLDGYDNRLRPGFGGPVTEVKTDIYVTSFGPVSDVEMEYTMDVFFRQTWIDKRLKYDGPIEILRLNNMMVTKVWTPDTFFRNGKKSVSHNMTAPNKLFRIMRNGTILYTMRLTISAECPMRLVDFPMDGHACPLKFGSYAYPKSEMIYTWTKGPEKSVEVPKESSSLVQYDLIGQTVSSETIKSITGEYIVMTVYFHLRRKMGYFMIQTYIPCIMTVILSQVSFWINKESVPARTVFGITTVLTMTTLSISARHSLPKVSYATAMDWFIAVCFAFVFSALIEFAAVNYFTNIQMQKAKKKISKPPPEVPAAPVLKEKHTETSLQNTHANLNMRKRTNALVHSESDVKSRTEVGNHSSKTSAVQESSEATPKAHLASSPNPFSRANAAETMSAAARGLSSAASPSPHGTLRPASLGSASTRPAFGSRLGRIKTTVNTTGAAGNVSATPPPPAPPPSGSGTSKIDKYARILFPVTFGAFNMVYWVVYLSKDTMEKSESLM
T5 sequence (P63137 25-474 limits assumed): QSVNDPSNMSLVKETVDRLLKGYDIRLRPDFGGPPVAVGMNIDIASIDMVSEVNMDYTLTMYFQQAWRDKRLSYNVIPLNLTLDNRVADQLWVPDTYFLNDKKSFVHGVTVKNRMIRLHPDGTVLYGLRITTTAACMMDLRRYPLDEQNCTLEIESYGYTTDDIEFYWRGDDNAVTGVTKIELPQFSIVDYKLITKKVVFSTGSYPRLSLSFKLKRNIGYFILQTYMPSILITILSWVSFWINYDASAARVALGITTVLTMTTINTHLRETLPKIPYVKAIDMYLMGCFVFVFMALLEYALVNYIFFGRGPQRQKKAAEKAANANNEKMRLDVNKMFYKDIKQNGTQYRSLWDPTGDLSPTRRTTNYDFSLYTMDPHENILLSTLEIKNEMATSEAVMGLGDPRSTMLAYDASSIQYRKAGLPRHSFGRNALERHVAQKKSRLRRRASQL
Kind of assay: THIP-induced tonic current in dentate granule cells of hippocampal slices. In kind it is cell-based. The conditions noted are these: 2 μM, n=8. How it is done: as §1, §2

Sequence of human GAT-1 polypeptide (P30531 whole entry): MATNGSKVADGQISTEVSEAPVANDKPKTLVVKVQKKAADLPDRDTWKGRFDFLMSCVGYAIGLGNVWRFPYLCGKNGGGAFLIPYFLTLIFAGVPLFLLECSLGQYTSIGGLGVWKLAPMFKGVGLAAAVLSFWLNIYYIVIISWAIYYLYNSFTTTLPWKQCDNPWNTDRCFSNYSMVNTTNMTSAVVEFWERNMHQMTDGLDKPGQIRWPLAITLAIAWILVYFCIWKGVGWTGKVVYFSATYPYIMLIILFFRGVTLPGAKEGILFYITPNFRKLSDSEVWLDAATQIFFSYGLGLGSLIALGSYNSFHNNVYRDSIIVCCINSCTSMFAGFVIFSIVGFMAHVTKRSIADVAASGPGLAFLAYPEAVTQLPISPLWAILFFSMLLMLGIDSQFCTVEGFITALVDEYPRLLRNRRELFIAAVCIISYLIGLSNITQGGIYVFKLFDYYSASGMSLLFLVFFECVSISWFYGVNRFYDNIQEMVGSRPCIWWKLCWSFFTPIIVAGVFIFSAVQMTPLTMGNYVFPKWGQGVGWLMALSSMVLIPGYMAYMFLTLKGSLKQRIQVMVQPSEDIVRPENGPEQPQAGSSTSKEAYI

Take `CCOC(=O)c1ncn2c1C1CCCN1C(=O)c1cc(OC)ccc1-2` [L-655,708, 11,12,13,13a-tetrahydro-7-methoxy-9-oxo-9H-imidazo[1,5-a]pyrrolo[2,1-c][1,4]benzodiaz-epine-1-carboxylic acid, ethyl ester]: the “effect on LTP impairment” value with LTP in DG was “rescued the LTP impairment”. In addition, the “effect on memory deficit (spontaneous alternation)” value in the assay with 5xFAD mice is reported as “rescued the memory deficit”. In addition, the “block of tonic current” value on α5-GABAA-Rs (100 nM, AD (5xFAD) dentate granule cells) is listed as “majority of tonic current in AD dentate granule cells was blocked”. Further, the “tonic current blocked by L-655,708” value is recorded as 98.7±12.9 pA at α5-GABAA-Rs (AD (5xFAD) dentate granule cells, n=9) and 35.4±6.3 pA on α5-GABAA-Rs (WT dentate granule cells, n=12). Also, the “proportion of tonic current blocked, WT vs AD” value at α5-GABAA-Rs (CA1 neurons) is “similar”.

One may read the Ki as a dissociation constant, usually derived from enzyme kinetics or from competition with a known ligand. With `COc1ccc(C2(O)CCN(CCCn3c4ccccc4c4ccccc43)CC2)cc1` [NNC 05-2045, 1-(3-(9H-carbazol-9-yl)-1-propyl)-4-(4-methoxyphenyl)-4-piperidinol], the figures for the Ki at human GAT-2 polypeptide, at human GAT-1 polypeptide and on human GAT-3 polypeptide were above 10 µM, above 20 µM and below 10 µM, respectively.

For `Cl.O=C(O)C1=CCCN(CCON=C(c2ccccc2)c2ccccc2)C1` [NO-711, 1-[2-[[(Diphenylmethylene)imino]oxy]ethyl]-1,2,5,6-tetrahydro-3-pyridinecarboxylic acid hydrochloride hydrochloride], the “tonic currents revealed by NO-711, WT vs. 5xFAD” value in assay [1] is “no difference”.

Consider `Oc1noc2c1CCNC2` [THIP, 4,5,6,7-tetrahydroisoxazolo[5,4-c]pyridin-3-ol], for which the THIP-induced tonic current at δ-GABAA-Rs (AD (5xFAD) dentate granule cells) is on record as 60.7±10.4 pA; at δ-GABAA-Rs (WT dentate granule cells), 65.2±6.6 pA.
